According to US20170137458A1, “OXYSTEROLS FOR USE IN THE TREATMENT AND PREVENTION OF DISEASES CAUSED BY VIRUSES” (priority 2014, published 2017):
Where two headings read alike, the source gives them in different places.

Tests used:
[1] = test system: PsV of HPV-16; experiment: microbe, parasite or virus in culture; format: cell-based, human papillomavirus
[2] = test system: rhinovirus; details: cited from earlier work
[3] = test system: human rotavirus WI61; experiment: Infectivity assay for rotavirus, MA104 cells, strain WI61
Method: (§1) The strains of human rotavirus Wa (ATCC® VR-2018), WI61 (ATCC® VR-2551), HRV 408 (ATCC® VR-2273), HRV 248 (ATCC® VR-2274) and DS-1 (ATCC® VR-2550) were acquired from the American Tissue Culture Collection (ATCC); the viruses were activated with 5 μg/ml porcine pancreatic trypsin of type IX (Sigma, St. Louis, Mo.) for 30 minutes at 37° C. and propagated in MA104 cells using MEM containing 0.5 μg of trypsin per ml as described previously (27).
(§2) The antiviral effectiveness of the oxysterols of the invention was determined by means of infectivity inhibition assay. The assays were performed with confluent monolayers of MA104 cells seeded in plates with 96 wells, as described previously (28). […] The control samples were prepared by treating the cells with culture medium with the addition of equal volumes of ethanol. The cells were then washed with medium, and the rotavirus infection was performed at a multiplicity of infection (MOI) of 0.02. After the infection, the cells were washed with medium and incubated at 37° C. in an incubator humidified at 5% (vol/vol) CO2-95% (vol/vol) of air. After 16 hours, the infected cells were fixed with a cold acetone-methanol mixture (50:50), and the virus titres were determined by means of indirect immunocytochemistry. The inhibition of the virus infectivity was expressed as a percentage comparing the mean number of infective events in the treated and non-treated samples±the standard deviations. Where possible, the values of the oxysterol concentrations able to determine 50% or 90% of the antiviral effect (EC50 and EC90 respectively) were calculated by means of regression analysis using the dose-response curves generated by the experimental data, with the use of PRISM 5.00 (GraphPad Software, San Diego, Calif., USA).

[4] = test system: LXR; details: cited from earlier work
[5] = test system: human rotavirus DS-1; experiment: Infectivity assay for rotavirus, MA104 cells, strain DS-1
Method: as §1, §2

[6] = test system: human rotavirus HRV 408; experiment: Infectivity assay for rotavirus, MA104 cells, strain HRV 408
Method: as §1, §2

[7] = test system: human rotavirus HRV 248; experiment: Infectivity assay for rotavirus, MA104 cells, strain HRV 248
Method: as §1, §2

[8] = test system: human rotavirus Wa; experiment: Infectivity assay for rotavirus, MA104 cells, strain Wa
Method: as §1, §2

[9] = test system: rotavirus; experiment: Rotavirus cell entry kinetics; format: cell-based; details: MA104 cells
Method: To measure the entry speed of the rotavirus into the cells, confluent monolayers of MA104 cells (cultivated in plates with 96 wells) were treated with 25OHC, 27OHC or 7κC at 1.9 μM at 37° C.; after 20 hours, the cells were washed extensively with cold medium and left to cool on ice. […] The non-bound viruses were then eliminated by washing, medium was added at 37° C., and the plates were incubated at 37° C. in a humidified atmosphere. At fixed times (i.e. 0, 15, 30, 45, 60, 75 and 90 minutes after the virus-cell adhesion), the medium was extracted from the wells and the viral particles still present on the surface of the cells were eliminated by means of two rapid washing operations with EGTA 3 mM in PBS, followed by incubation in warm medium. After reaching the last time point (90 minutes from the virus-cell adhesion), the plates with 96 wells were placed in an incubator (37° C., 5% CO2), and the infection was left to proceed for a further 16 hours. The cells were then fixed and coloured as described above. The quantity of viral particles that entered the cells at each time point was compared with the quantity of virus that entered when no washing with EGTA was performed (100% entry). The ANOVA, followed by the Bonferroni test, was used to evaluate the statistical significance of the differences between the treated and non-treated samples. The significance was fixed at the level of 95%.
As a control experiment, the same treatment and infection protocol was performed on MA104 cells, cultivated in a plate with 6 wells. In this experiment, after reaching the last time point of the entry measurement (90 minutes), the cells were lysed, the proteins extracted were denatured by boiling for 5 minutes, then separated by electrophoresis on sodium dodecylsulfate gel with 12% polyacrylamide (SDS-12%PAGE) and transferred to a polyvinylidene difluoride (PVDF) membrane. The protein of the intermediate capsid VP6 was detected using the murine monoclonal antibody 2B4 (mab0036-P, CovalAb) at a dilution 1:750, followed by secondary antibody IgG-HRP (Santa Cruz Biotechnology Inc.). The actin was detected using the anti-actin murine monoclonal antibody MAB1501R (Millipore), followed by antibody IgG-HRP (Santa Cruz Biotechnology Inc.). The density of the bands was compared using the ImageJ software, and the intensity of the actin bands was used to normalize the values. The ANOVA, followed by the Bonferroni test, was used to evaluate the statistical significance of the differences between the treated and the non-treated samples. The significance was fixed at the level of 95%. The results are reported in FIG. 11 and are expressed as a percentage, comparing treated cells with cells incubated with culture medium.

[10] = test system: human rotavirus; experiment: Target identification by siRNA sensitization (TISS), human rotavirus, Caco2 cells; details: oxysterol at its EC50
Method: (§3) This mechanism of action vis-à-vis the rotavirus was therefore investigated, performing a target identification assay by means of sensitization with short interfering RNA (siRNA). The Caco2 cells (for the experiments with human rotavirus) or the HeLa cells (for the experiments with human papillomavirus) were seeded in a plate with 24 wells; during seeding, the cells were transfected with siRNA specific for OSBP and VAPA (at a concentration of 20 nM). […] After one day, the medium was removed and the cells inoculated with the respective viruses in the same time, temperature and MOI conditions described in the protocols of the infectivity or neutralization assays. The number of infected cells was evaluated as described in the preceding paragraphs.

[11] = test system: human rotavirus (strain Wa); experiment: Rotavirus yield reduction assay; format: cell-based
Method: The cells were treated at 37° C. with 25-, 27-, 7α-, 7β-hydroxycholesterol or 7-ketocholesterol at 5.6 μM for 20 hours, then washed with medium and infected with the human rotavirus at an MOI of 0.02 (strain Wa) activated with trypsin. After one hour, the cells were washed and fresh medium was added supplemented with 0.5 μg/ml of porcine trypsin. […] The assay was performed in triplicate and the results were confirmed on Caco2 cells. In an alternative protocol, the MA104 cells were treated with oxysterols—at the concentration indicated above—after the viral inoculum. The one-way variance analysis (ANOVA), followed by the Bonferroni test, was used to evaluate the statistical significance of the virus titre differences between the treated and non-treated samples. The significance was fixed at 95%.
The results of the pre-treatment assays are illustrated in FIGS. 5 (MA104 cells) and 6 (Caco2 cells).

[12] = test system: human rotavirus Wa; experiment: Infectivity assay for rotavirus repeated on Caco2 cells, strain Wa; format: cell-based; details: Caco-2
From the text: The results of the antiviral assays performed treating with 25OHC and 27OHC were confirmed repeating the infectivity assays on Caco2 cells.

[13] = test system: human papillomavirus; experiment: Target identification by siRNA sensitization (TISS), human papillomavirus, HeLa cells; details: oxysterol at its EC50
Method: as §3

Which EC50 ([1]; C33A cells, treated 16 hours before PsV, read-out: EC50) does the source give for `C[C@H](CCCC(C)(C)O)[C@H]1CC[C@H]2[C@@H]3CC=C4C[C@@H](O)CC[C@]4(C)[C@H]3CC[C@]12C` [25OHC, 25-hydroxycholesterol] here?
Its EC50 is 2060 nM.

What about the EC50 ([1]; Human papillomavirus, HeLa) of the same compound?
Its EC50 is 2190 nM.

What about the EC50 ([1]; Human papillomavirus, SiHa) of the same compound?
The EC50 was 14800 nM.

And the “replication of the genoma of the rhinovirus” value [2]?
Its value is “able to inhibit replication of the genoma”.

And the “rhinovirus entry into the host cell” value [2]?
The value was “not entry into the host cell”.

What about the EC50 [3] of the same compound?
The EC50 was 90 nM.

What about the EC90 [3] of the same compound?
The EC90 was 280 nM.

And the LXR ligand activity [4]?
The LXR ligand activity was “optimal ligands of LXR”.

What about the EC50 [5] of the same compound?
The EC50 was 270 nM.

And the EC90 [5]?
The EC90 was 5770 nM.

What about the EC50 [6] of the same compound?
The EC50 was 120 nM.

And the EC90 [6]?
Its EC90 is 420 nM.

And the EC50 [7]?
The EC50 was 110 nM.

And the EC90 [7]?
The EC90 was 1260 nM.

And the EC50 [8]?
The EC50 was 160 nM.

And the EC90 [8]?
Its EC90 is 1370 nM.

What about the “entry of the rotavirus into the cells (infective events)” value ([9]; 1.9 μM for 20 hours, MOI 0.02) of the same compound?
Its value is “totally inhibit the ability of the rotavirus to penetrate into the host cells”.

And the “viral antigen VP6 within the cells (Western blot)” value ([9]; 90 minutes after virus-cell adhesion)?
Its value is “significantly (p<0.05) lower quantity than the non-treated control”.

And the “antiviral activity in cells with OSBP silenced” value ([10]; OSBP siRNA 20 nM)?
Its value is “higher”.

And the “antiviral activity in cells with VAP-A silenced” value ([10]; VAPA siRNA 20 nM)?
The value was “higher”.

And the “production of virus progenies” value ([11]; Caco2 cells, pre-treatment 5.6 μM for 20 hours, collected 48 hours after infection)?
Its value is “significantly limit (p<0.05) the production of virus progenies”.

What about the “production of virus progenies” value ([11]; MA104 cells, post-infection treatment 5.6 μM) of the same compound?
The value was “confirm the in vitro effectiveness”.

What about the “production of virus progenies” value ([11]; MA104 cells, pre-treatment 5.6 μM for 20 hours, collected 48 hours after infection) of the same compound?
The value was “significantly limit (p<0.05) the production of virus progenies”.

What about the EC50 [12] of the same compound?
The EC50 was 190 nM.

What about the EC90 [12] of the same compound?
Its EC90 is 1260 nM.

What about the “antiviral activity in cells with OSBP silenced” value ([13]; OSBP siRNA 20 nM) of the same compound?
Its value is “higher”.

What about the “antiviral activity in cells with VAP-A silenced” value ([13]; VAPA siRNA 20 nM) of the same compound?
The value was “higher”.
